Values quoted from earlier work as cited in patent US6852335B2, “Folic acid in solid dosage forms” (Shaklee Corporation, priority 1999, dated 2005).

Details: 25° C. (The Merck Index, 12th edition)

solubility in water: approximately 1.6 mcg/ml
SMILES: Nc1nc2ncc(CNc3ccc(C(=O)N[C@@H](CCC(=O)O)C(=O)O)cc3)nc2c(=O)[nH]1 [Folic acid]
